Source: patent US7683079B2, “4-aminopiperidine derivatives” (Hoffmann-La Roche Inc., priority 2004, dated 2010)

These compounds were tested against T1, human DPP-IV (Homo sapiens, UniProt P27487) (assay: DPP-IV activity assay (fluorometric/colorimetric), IC50 determination). Details: natural human DPP-IV from human plasma pool or recombinant human DPP-IV; 37° C., pH 7.8; substrate 50 μM (fluorogenic) or 200 μM (colorimetric).
T1 construct: made in house; host or cells: Pichia pastoris
Format: biochemical
Protocol: Activity of DPP-IV inhibitors are tested with natural human DPP-IV derived from a human plasma pool or with recombinant human DPP-IV. […] In the calorimetric DPP-IV assay 5 to 10 μl human plasma and in the fluorometric assay 1.0 μl of human plasma in a total assay volume of 100 μl is used as an enzyme source. […] Human DPP-IV is expressed and purified from the culture medium using conventional column chromatography including size exclusion and anion and cation chromatography.
A 20 mM stock solution in 10% DMF/H2O is stored at −20° C. until use.
A 10 mM stock solution in 10% MeOH/H2O is stored at −20° C. until use.
Fluorescence is detected in a Perkin Elmer Luminescence Spectrometer LS 50B at an excitation wavelength of 400 nm and an emission wavelength of 505 nm continuously every 15 seconds for 10 to 30 minutes. Initial rate constants are calculated by best fit linear regression.
Initial rate constants are calculated by best fit linear regression.
DPP-IV activity assays are performed in 96 well plates at 37° C. in a total assay volume of 100 μl. The assay buffer consists of 50 mM Tris/HCl pH 7.8 containing 0.1 mg/ml BSA and 100 mM NaCl. […] Enzyme reactions are started with substrate application followed by immediate mixing.

T1 sequence (P27487 31-766): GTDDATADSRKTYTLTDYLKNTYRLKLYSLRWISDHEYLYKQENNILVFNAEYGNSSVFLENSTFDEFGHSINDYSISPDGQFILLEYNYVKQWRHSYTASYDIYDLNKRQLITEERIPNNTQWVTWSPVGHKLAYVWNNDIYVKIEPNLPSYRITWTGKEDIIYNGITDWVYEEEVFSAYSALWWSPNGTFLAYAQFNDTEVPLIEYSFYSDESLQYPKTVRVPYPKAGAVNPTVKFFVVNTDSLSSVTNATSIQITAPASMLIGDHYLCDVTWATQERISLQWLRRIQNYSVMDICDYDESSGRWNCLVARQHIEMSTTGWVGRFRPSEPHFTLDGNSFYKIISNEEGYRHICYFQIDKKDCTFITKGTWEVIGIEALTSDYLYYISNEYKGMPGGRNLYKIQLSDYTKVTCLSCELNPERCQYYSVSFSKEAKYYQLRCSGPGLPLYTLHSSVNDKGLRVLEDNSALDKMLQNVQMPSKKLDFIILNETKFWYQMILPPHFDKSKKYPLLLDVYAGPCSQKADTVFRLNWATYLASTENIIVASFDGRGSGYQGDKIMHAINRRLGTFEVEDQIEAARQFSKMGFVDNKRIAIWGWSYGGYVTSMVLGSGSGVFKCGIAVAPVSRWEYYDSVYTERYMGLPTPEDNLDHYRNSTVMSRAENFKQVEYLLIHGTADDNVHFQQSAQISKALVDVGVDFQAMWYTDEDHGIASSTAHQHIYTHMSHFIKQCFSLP

Row | Compound | IC50 [nM]
1 | COc1ccc(N2CC[C@@H](N)[C@@H](C(=O)N3CCSC3)C2)cc1OC (racemic) [Example 40, 3 [(3S,4R) and (3R,4S)-4-Amino-1-(3,4-dimethoxy-phenyl)-piperidine-3-yl]-thiazolidin-3-yl-methanone] | 820
2 | NC1CCN(CCc2ccccc2)CC1c1cccc(Cl)c1 (stereo not drawn) [Example 23, 3-(3-Chloro-phenyl)-1-phenethyl-piperidine-4-ylamine] | 160
3 | N[C@@H]1CCN(CCc2ccccn2)C[C@@H]1C(=O)N1CCSC1 [Example 36] | 290
